Results taken from US20140343049A1, “DIHYDROFURAN DERIVATIVES AS INSECTICIDAL COMPOUNDS” (SYNGENTA PARTICIPATIONS AG, priority 2011, published 2014).

Columns and labels:
Format in all cases: in vivo
[1] = system: Spodoptera littoralis (Egyptian cotton leafworm); experiment: Spodoptera littoralis cotton leaf disc spray test; settings: foliar, 72 h, cotton leaf discs sprayed at 200 ppm, 5 L1 larvae, mortality, feeding behavior, growth regulation 3 days after treatment
Text: Cotton leaf discs were placed on agar in a 24-well microtiter plate and sprayed with test solutions at an application rate of 200 ppm. After drying, the leaf discs were infested with 5 L1 larvae. The samples were checked for mortality, feeding behavior, and growth regulation 3 days after treatment (DAT).

[2] = system: Heliothis virescens (tobacco budworm); experiment: Heliothis virescens egg test on artificial diet; settings: 96 h, 200 ppm (concentration in well 18 ppm), eggs 0-24 h old, 4 days, egg mortality, larval mortality, growth regulation
Description: Eggs (0-24 h old) were placed in 24-well microtiter plate on artificial diet and treated with test solutions at an application rate of 200 ppm (concentration in well 18 ppm) by pipetting. After an incubation period of 4 days, samples were checked for egg mortality, larval mortality, and growth regulation.

[3] = system: Plutella xylostella (diamond back moth); experiment: Plutella xylostella L2 larvae test on artificial diet; settings: 144 h, 200 ppm (concentration in well 18 ppm), 6 days, larval mortality and growth regulation
Description: (§1) 24-well microtiter plate (MTP) with artificial diet was treated with test solutions at an application rate of 200 ppm (concentration in well 18 ppm) by pipetting. After drying, the MTPs were infested with L2 larvae (7-12 per well). After an incubation period of 6 days, samples were checked for larval mortality and growth regulation.

[4] = system: Diabrotica balteata (corn root worm); experiment: Diabrotica balteata L2 larvae test on artificial diet; settings: 120 h, 200 ppm (concentration in well 18 ppm), 5 days, larval mortality and growth regulation
Description: as §1, with “A 24-well” for “24-well”, “(6-10” for “(7-12”, “5” for “6”
as §1, with “A 24-well” for “24-well”, “12.5” for “200”, “MTP's” for “MTPs”, “(6-10” for “(7-12”, “5” for “6”

SMILES | pest or weed control at 200 ppm [1] [%] | pest or weed control at 200 ppm [2] [%] | pest or weed control at 200 ppm [3] [%] | pest or weed control at 200 ppm [4] [%]
CCCCNC(=O)c1ccc(C2=CC(c3cc(Cl)cc(Cl)c3)(C(F)(F)F)OC2)cc1C (stereo not drawn) [Compound A5] | ≥ 80 | ≥ 80 | ≥ 80 | ≥ 80
COCC(C)NC(=O)c1ccc(C2=CC(c3cc(Cl)cc(Cl)c3)(C(F)(F)F)OC2)cc1C (stereo not drawn) [Compound A6] | ≥ 80 | ≥ 80 | ≥ 80 | ≥ 80
Cc1cc(C2=CC(c3cc(Cl)cc(Cl)c3)(C(F)(F)F)OC2)ccc1C(=O)NCC1CCCO1 (stereo not drawn) [Compound A7] | ≥ 80 | ≥ 80 | ≥ 80 | ≥ 80
Cc1cc(C2=CC(c3cc(Cl)cc(Cl)c3)(C(F)(F)F)OC2)ccc1C(=O)NCc1ccccc1 (stereo not drawn) [Compound A8] |  |  |  | ≥ 80
Cc1cc(C2=CC(c3cc(Cl)cc(Cl)c3)(C(F)(F)F)OC2)ccc1C(=O)NC1CCSC1=O (stereo not drawn) [Compound A21] | ≥ 80 | ≥ 80 | ≥ 80 | ≥ 80
Cc1cc(C2=CC(c3cc(Cl)cc(Cl)c3)(C(F)(F)F)OC2)ccc1C(=O)NC1CCCCC1C (stereo not drawn) [Compound A32] |  |  | ≥ 80 | ≥ 80
Cc1cc(C2=CC(c3cc(Cl)cc(Cl)c3)(C(F)(F)F)OC2)ccc1C(=O)NCCc1ccccc1 (stereo not drawn) [Compound A39] |  | ≥ 80 | ≥ 80 | ≥ 80
Cc1cc(C2=CC(c3cc(Cl)cc(Cl)c3)(C(F)(F)F)OC2)ccc1C(=O)NCCc1cccs1 (stereo not drawn) [Compound A41] |  |  | ≥ 80 | ≥ 80
Cc1cc(C2=CC(c3cc(Cl)cc(Cl)c3)(C(F)(F)F)OC2)ccc1C(=O)NCCOc1ccccc1 (stereo not drawn) [Compound A42] | ≥ 80 | ≥ 80 |  | ≥ 80
Cc1cc(C2=CC(c3cc(Cl)cc(Cl)c3)(C(F)(F)F)OC2)ccc1C(=O)NCc1ccccc1C(F)(F)F (stereo not drawn) [Compound A48] |  |  |  | ≥ 80
Cc1cc(C2=CC(c3cc(Cl)cc(Cl)c3)(C(F)(F)F)OC2)ccc1C(=O)NCc1ccccc1N1CCCCC1 (stereo not drawn) [Compound A50] |  |  |  | ≥ 80
Cc1cc(C2=CC(c3cc(Cl)cc(Cl)c3)(C(F)(F)F)OC2)ccc1C(=O)NC1CCN(Cc2ccccc2)C1 (stereo not drawn) [Compound A53] | ≥ 80 |  |  | ≥ 80
Cc1cc(C2=CC(c3cc(Cl)cc(Cl)c3)(C(F)(F)F)OC2)ccc1C(=O)NCCN1CCN(Cc2ccccc2)CC1 (stereo not drawn) [Compound A54] |  | ≥ 80 |  | ≥ 80
Cc1cc(C2=CC(c3cc(Cl)cc(Cl)c3)(C(F)(F)F)OC2)ccc1C(=O)NCc1ccco1 (stereo not drawn) [Compound A55] | ≥ 80 | ≥ 80 | ≥ 80 | ≥ 80
Cc1cc(C2=CC(c3cc(Cl)cc(Cl)c3)(C(F)(F)F)OC2)ccc1C(=O)Nc1ccc2[nH]ncc2c1 (stereo not drawn) [Compound A60] | ≥ 80 | ≥ 80 | ≥ 80 | ≥ 80
Cc1cc(C2=CC(c3cc(Cl)cc(Cl)c3)(C(F)(F)F)OC2)ccc1C(=O)Nc1ccc(-n2cccc2)cc1 (stereo not drawn) [Compound A61] |  |  |  | ≥ 80
Cc1cc(C2=CC(c3cc(Cl)cc(Cl)c3)(C(F)(F)F)OC2)ccc1C(=O)Nc1ccc2c(C)cc(=O)oc2c1 (stereo not drawn) [Compound A65] |  |  |  | ≥ 80
Cc1cc(C2=CC(c3cc(Cl)cc(Cl)c3)(C(F)(F)F)OC2)ccc1C(=O)Nc1ccc(S(=O)(=O)N(C)C)cc1 (stereo not drawn) [Compound A66] |  | ≥ 80 |  | ≥ 80
Cc1cc(NC(=O)c2ccc(C3=CC(c4cc(Cl)cc(Cl)c4)(C(F)(F)F)OC3)cc2C)n(C)n1 (stereo not drawn) [Compound A67] | ≥ 80 | ≥ 80 | ≥ 80 | 
Cc1cc(O)nc(NC(=O)c2ccc(C3=CC(c4cc(Cl)cc(Cl)c4)(C(F)(F)F)OC3)cc2C)n1 (stereo not drawn) [Compound A69] |  | ≥ 80 | ≥ 80 | ≥ 80
Cc1cc(C2=CC(c3cc(Cl)cc(Cl)c3)(C(F)(F)F)OC2)ccc1C(=O)Nc1ncnc2[nH]cnc12 (stereo not drawn) [Compound A72] | ≥ 80 |  |  | 
Cc1nnc(NC(=O)c2ccc(C3=CC(c4cc(Cl)cc(Cl)c4)(C(F)(F)F)OC3)cc2C)s1 (stereo not drawn) [Compound A75] |  |  |  | ≥ 80
O=C(NCC(F)(F)F)c1ccc(C2=CC(c3cc(Cl)cc(Cl)c3)(C(F)(F)F)OC2)nc1 (stereo not drawn) [Compound B1] |  |  | ≥ 80 | 
